Source: patent US20250082624A1, “METHODS OF TREATING COGNITIVE IMPAIRMENT” (NeuroTherapia, Inc., priority 2023, published 2025)
Several values for one entry are separate records, joined by “and”; a condition that tells them apart may be missing. Equal values may be shown once. Entries after “also recorded” stand apart in the source; their conditions may differ. Read-outs that look alike come from different tables or passages of the source.

Test: Phase 1b MAD plasma pharmacokinetics, non-compartmental analysis
Type: in vivo, human
From the text: Methods: All study procedures were approved by the IRB, and informed consent was obtained. Three cohorts of volunteers 45-80 years of age with well-controlled comorbidities (NOAD) and one cohort of AD patients diagnosed with cognitive impairment consistent with prodromal AD per International Working Group criteria or mild AD per National Institute on Aging—Alzheimer's Association criteria (n=6 active, 2 placebo per cohort) were enrolled. Participants were admitted to the study site for the duration of the dosing and returned 7-12 days after the last dose for a safety visit. Participants received NTRX-07 (10, 30, or 90 mg) or a placebo in a double-blinded randomization orally once daily for seven days. Subjects were assessed for changes in vital signs, including maneuvers to induce lightheadedness, electrocardiograms, 24-hour electroencephalograms (EEG), and safety laboratory studies. The second cohort returned and received a single repeat dose after a standard high-fat meal. The AD cohort also underwent cognitive testing and had blood samples for biomarkers drawn. Subjects had PK sampling done after the first and final dose of the study drug. An independent safety review committee conducted a blinded safety review of adverse events and plasma levels between each cohort.
All subjects had PK sampling done after the first and final dose of the study drug.
(§1) Raw bioanalytical data were received from Nuvisan following analysis of plasma samples from each of four cohorts. PK parameters were calculated by noncompartmental analysis using standard equations. Specifically, area under the plasma concentration versus time curve (AUC) was calculated using the trapezoid rule. Maximal plasma concentration (Cmax) and time of maximal plasma concentration (Tmax) were taken directly from the data. Clearance divided by bioavailability (Cl/F) was calculated as the dose divided by the AUC. Apparent volume of distribution over bioavailability (Vd/F) was calculated as dose divided by Cmax.
With oral administration of the dose every 24 hours for 7 days, blood samples were taken over a 24-hour interval on Days 1 and 7 and before and after dosing on Day 3.
as §1, with “on Oct. 27, 2022. […]” for “following analysis of plasma samples from each of four cohorts. PK parameters were calculated by noncompartmental analysis using standard equations.”
as §1, with “on Nov. 24, 2022. […]” for “following analysis of plasma samples from each of four cohorts. PK parameters were calculated by noncompartmental analysis using standard equations.”
as §1, with “on Dec. 19, 2022. […]” for “following analysis of plasma samples from each of four cohorts. PK parameters were calculated by noncompartmental analysis using standard equations.”
Raw bioanalytical data were received from Nuvisan on Jun. 30, 2023. […] Specifically, area under the plasma concentration versus time curve (AUC) was calculated using the trapezoid rule. Maximal plasma concentration (Cmax) and time of maximal plasma concentration (Tmax) were taken directly from the data. […]

[1] = Table 17: Cohort D (AD), 90 mg QD oral, Day 7, individual subjects
[2] = Table 19 (interim): Cohort A, 40 mg SDD (10 mg NTRX-07) QD oral, Day 1, individual subjects
[3] = Table 20 (interim): Cohort A, 40 mg SDD (10 mg NTRX-07) QD oral, Day 7, individual subjects
[4] = Table 24 (interim): Cohort B, 120 mg SDD (30 mg NTRX-07) QD oral, Day 1, individual subjects
[5] = Table 25 (interim): Cohort B, 120 mg SDD (30 mg NTRX-07) QD oral, Day 7, individual subjects
[6] = Table 29 (interim): Cohort C, 360 mg SDD (90 mg NTRX-07) QD oral, Day 1, individual subjects
[7] = Table 30 (interim): Cohort C, 360 mg SDD (90 mg NTRX-07) QD oral, Day 7, individual subjects
[8] = Table 34 (interim): Cohort D (AD), 360 mg SDD (90 mg NTRX-07) QD oral, Day 1, individual subjects
[9] = Table 35 (interim): Cohort D (AD), 360 mg SDD (90 mg NTRX-07) QD oral, Day 7, individual subjects

With `CC1(Cc2ccccc2)COc2cc(C(=O)N3CCCCC3)ccc21` (centres unmarked) [NTRX-07, 3-benzyl-3-methyl-2,3-dihydrobenzofuran-6-carboxylic acid-piperidine amide] the Cmax [1] was 250 ng/mL and 262 ng/mL and 246 ng/mL and 176 ng/mL and 221 ng/mL, the Tmax [1] was 1.5 h (3×) and 1 h and the Cl/F (Table 17: Cohort D (AD), 90 mg QD oral, Day 7, mean ± S.D.) was 117 ± 28 L/h. The AUC24 h [2] was 35.7 ng·h/mL and 73.8 ng·h/mL and 151.0 ng·h/mL and 46.3 ng·h/mL and 154.2 ng·h/mL and 96.8 ng·h/mL, the Cl/F [2] was 1120 L/h and 542 L/h and 265 L/h and 864 L/h and 259 L/h and 413 L/h and the Cmax [2] was 24.2 ng/mL and 45.0 ng/mL and 36.7 ng/mL and 18.2 ng/mL and 52.6 ng/mL and 37.0 ng/mL. For the same molecule, the Tmax [2] was 1.0 h, the Cl/F (Table 19 (interim): Cohort A, 40 mg SDD (10 mg NTRX-07) QD oral, Day 1, mean ± S.D.) was 577 ± 347 L/h and the AUC24 h [3] was 49.5 ng·h/mL and 92.8 ng·h/mL and 223.8 ng·h/mL and 41.5 ng·h/mL and 91.9 ng·h/mL and 67.0 ng·h/mL. The Cl/F [3] was 808 L/h and 431 L/h and 179 L/h and 963 L/h and 435 L/h and 597 L/h, the Cmax [3] was 29.6 ng/mL and 39.4 ng/mL and 63.6 ng/mL and 19.6 ng/mL and 46.7 ng/mL and 27.1 ng/mL and the Tmax [3] was 1.0 h. For the same molecule, the Cl/F (Table 20 (interim): Cohort A, 40 mg SDD (10 mg NTRX-07) QD oral, Day 7, mean ± S.D.) was 569 ± 284 L/h, the AUC24 h [4] was 152.3 ng·h/mL and 462.4 ng·h/mL and 716.3 ng·h/mL and 369.3 ng·h/mL and 229.9 ng·h/mL and 97.4 ng·h/mL and 236.4 ng·h/mL and the Cl/F [4] was 788 L/h and 260 L/h and 168 L/h and 325 L/h and 522 L/h and 1231 L/h and 508 L/h. The Cmax [4] was 60.8 ng/mL and 93.9 ng/mL and 209 ng/mL and 127 ng/mL and 153 ng/mL and 47.9 ng/mL and 70.6 ng/mL, the Tmax [4] was 1 h (3×) and 2 h and the Cl/F (Table 24 (interim): Cohort B, 120 mg SDD (30 mg NTRX-07) QD oral, Day 1, mean ± S.D.) was 549 ± 401 L/h. The AUC24 h [5] was 118.0 ng·h/mL and 582.3 ng·h/mL and 286.5 ng·h/mL and 241.7 ng·h/mL and 67.1 ng·h/mL and 200.4 ng·h/mL, the Cl/F [5] was 1017 L/h and 206 L/h and 419 L/h and the Cmax [5] was 92.9 ng/mL and 236 ng/mL and 127 ng/mL. For the same molecule, the Tmax [5] was 1 h, the AUC24 h [6] was 1629 ng·h/mL and 857 ng·h/mL and 925 ng·h/mL and 657 ng·h/mL and 1730 ng·h/mL and 1949 ng·h/mL and the Tmax [6] was 1.5 h (2×) and 8 h and 1 h and 3 h. For the same molecule, the AUC24 h [7] was 783 ng·h/mL and 604 ng·h/mL and 354 ng·h/mL and 516 ng·h/mL and 876 ng·h/mL and 1349 ng·h/mL, the Tmax [7] was 2 h and 1.5 h and 3 h and the AUC24 h [8] was 1004 ng·h/mL and 1255 ng·h/mL and 2727 ng·h/mL and 1349 ng·h/mL and 1580 ng·h/mL and 1422 ng·h/mL. For the same molecule, the Tmax [8] was 2 h and 1 h (2×) and 1.5 h, the AUC24 h [9] was 1854 ng·h/mL and 1659 ng·h/mL and 1603 ng·h/mL and 1328 ng·h/mL and 1130 ng·h/mL and the Tmax [9] was 1.5 h (3×) and 1 h. The “PK / plasma levels AD vs Non-AD participants” value (high dose (90 mg)) was “similar; also recorded: comparable”, the Cmax (human, plasma, oral, 90 mg, high dose (90 mg), AD participants, read-out: Cmax) was 477 ng/mL and the AUC(0-t) (human, plasma, oral, 90 mg, high dose (90 mg), AD participants, read-out: average of AUC0-24 h) was 1560 ng·h/mL. The Cmax (human, plasma, oral, 90 mg, high dose (90 mg), Non-AD participants, read-out: Cmax) was 439 ng/mL, the AUC(0-t) (human, plasma, oral, 90 mg, high dose (90 mg), Non-AD participants, read-out: average of AUC0-24 h) was 1290 ng·h/mL and the AUC(0-t) (human, plasma, po, 10 mg, Cohort A healthy, 10 mg QD oral, Day 1, mean ± SD, read-out: Average of AUC24 h) was 78.8 ± 43.7 ng·h/mL. The Cmax (human, plasma, po, 10 mg, Cohort A healthy, 10 mg QD oral, Day 1, mean ± SD, read-out: Average of Cmax) was 35.6 ± 12.8 ng/mL, the Tmax (human, plasma, po, 10 mg, Cohort A healthy, 10 mg QD oral, Day 1, mean ± SD, read-out: Average of Tmax) was 0.7 ± 0.3 h and the Vd/F (human, plasma, po, 10 mg, Cohort A healthy, 10 mg QD oral, Day 1, mean ± SD, read-out: Average of Vd/F) was 1280 ± 544 L. The AUC(0-t) (human, plasma, po, 10 mg, Cohort A healthy, 10 mg QD oral, Day 7, mean ± SD, read-out: Average of AUC24 h) was 90.4 ± 67.9 ng·h/mL, the Cmax (human, plasma, po, 10 mg, Cohort A healthy, 10 mg QD oral, Day 7, mean ± SD, read-out: Average of Cmax) was 37.7 ± 15.9 ng/mL and the Tmax (human, plasma, po, 10 mg, Cohort A healthy, 10 mg QD oral, Day 7, mean ± SD, read-out: Average of Tmax) was 0.8 ± 0.3 h. For the same molecule, the Vd/F (human, plasma, po, 10 mg, Cohort A healthy, 10 mg QD oral, Day 7, mean ± SD, read-out: Average of Vd/F) was 307 ± 126 L, the Tmax (human, plasma, po, 10 mg, Table 9: Cohort A, 10 mg QD oral, Day 1, individual subjects, read-out: Tmax) was 0.5 h and the AUC(0-t) (human, plasma, po, 10 mg, Table 9: Cohort A, 10 mg QD oral, Day 1, mean ± S.D., read-out: AUClast) was 78.8 ± 43.7 ng·h/mL. For the same molecule, the Cmax (human, plasma, po, 10 mg, Table 9: Cohort A, 10 mg QD oral, Day 1, mean ± S.D., read-out: Cmax) was 35.6 ± 12.8 ng/mL, the Tmax (human, plasma, po, 10 mg, Table 9: Cohort A, 10 mg QD oral, Day 1, mean ± S.D., read-out: Tmax) was 0.7 ± 0.3 h and the Vd/F (human, plasma, po, 10 mg, Table 9: Cohort A, 10 mg QD oral, Day 1, mean ± S.D., read-out: Vd/F) was 1280 ± 544 L. The Tmax (human, plasma, po, 10 mg, Table 10: Cohort A, 10 mg QD oral, Day 7, individual subjects, read-out: Tmax) was 0.5 h and the AUC over 24 h (AUC0-24) (human, plasma, po, 10 mg, Table 10: Cohort A, 10 mg QD oral, Day 7, mean ± S.D.) was 90.4 ± 67.9 ng·h/mL.
